In patent US8563714B2, “Bridged spiro [2.4] heptane derivatives as ALX receptor and/or FPRL2 agonists” (Actelion Pharmaceuticals Ltd., priority 2009, dated 2013):

Columns and labels:
[1] = biological target: T1, human ALX receptor (Homo sapiens, UniProt P25090); test: Intracellular calcium measurements (FLIPR), agonistic activity in HEK293-hALXR-Gα16 cells; format: cell-based; conditions: Fluo-4 calcium FLIPR, normalized to WKYMVm 10 nM
T1 construct: expressed in transfected cells; host or cells: HEK293 (HEK293-hALXR-Gα16)
T1 sequence (P25090 1-351): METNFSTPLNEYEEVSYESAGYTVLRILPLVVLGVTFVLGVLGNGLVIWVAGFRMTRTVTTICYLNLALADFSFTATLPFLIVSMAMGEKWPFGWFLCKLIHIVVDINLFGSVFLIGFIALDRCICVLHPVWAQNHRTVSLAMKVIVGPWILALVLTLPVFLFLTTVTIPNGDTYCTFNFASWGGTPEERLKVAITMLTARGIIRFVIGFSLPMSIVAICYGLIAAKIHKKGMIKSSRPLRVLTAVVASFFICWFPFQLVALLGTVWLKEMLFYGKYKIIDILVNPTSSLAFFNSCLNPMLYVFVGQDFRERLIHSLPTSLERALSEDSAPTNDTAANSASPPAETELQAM
Outline: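 HEK293 cells expressing hALXR and Gα16 were loaded with 1 μM Fluo-4 AM and 20 mM HEPES for 60 min at 37°C, then exposed to serially diluted compound. FLIPR fluorescence was read at ex 488/em 540 nm. Baseline-subtracted peak responses were normalized to 10 nM WKYMVm.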

[2] = biological target: T2, human FPRL2 (Homo sapiens, UniProt P25089); test: Intracellular calcium measurements (FLIPR), agonistic activity in HEK293-hFPRL2-Gα16 cells; format: cell-based; conditions: Fluo-4 calcium FLIPR, normalized to GLY14-Humanin 100 nM
T2 construct: expressed in transfected cells; host or cells: HEK293 (HEK293-hFPRL2-Gα16)
T2 sequence (P25089 1-353): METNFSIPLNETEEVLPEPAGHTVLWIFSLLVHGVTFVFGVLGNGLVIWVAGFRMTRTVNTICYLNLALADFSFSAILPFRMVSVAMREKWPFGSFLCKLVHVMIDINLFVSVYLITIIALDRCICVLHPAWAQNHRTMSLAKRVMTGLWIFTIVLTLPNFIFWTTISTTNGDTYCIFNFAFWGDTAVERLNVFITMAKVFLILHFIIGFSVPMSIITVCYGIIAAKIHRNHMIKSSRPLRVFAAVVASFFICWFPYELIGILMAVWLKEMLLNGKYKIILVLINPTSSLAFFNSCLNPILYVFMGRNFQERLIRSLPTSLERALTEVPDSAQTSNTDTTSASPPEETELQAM
Outline: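 Peak values after baseline subtraction are expressed relative to 100 nM Gly14-Humanin; compounds diluted in assay buffer from 10 mM DMSO stocks.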

SMILES	EC50 [1] [nM]	EC50 [2] [nM]
CN(C)CCCCCNC(=O)[C@H]1[C@H](C(=O)Nc2ccc(Br)cc2)[C@@H]2C=C[C@H]1C21CC1 (racemic) [Example 51, (5R*)—N^5-(4-Bromophenyl)-(6R*)—N^6-(5-dimethyl-amino-pentyl)-(4S*,7R*)-[4,7-ethenylene-spiro[2.4]heptane]-5,6-dicarboxamide]	8.2	1490
O=C(NCC1CCCN1)[C@H]1[C@H](C(=O)Nc2ncc(Br)s2)[C@@H]2CC[C@H]1C21CC1 (stereo partly drawn) [Example 416, (5R)—N^5-(5-Bromothiazol-2-yl)-(6R)—N^6-[(pyrrolidin-2-yl)-methyl]-(4S,7R)-[4,7-ethylene-spiro[2.4]heptane]-5,6-dicarboxamide]	8.3	479
NS(=O)(=O)c1ccc(CCNC(=O)[C@H]2[C@H](C(=O)Nc3ccc(Br)cc3)[C@@H]3C=C[C@H]2C32CC2)cc1 (racemic) [Example 61, (5R*)—N^5-(4-Bromophenyl)-(6R*)—N^6-(2-(4-aminosulfonyl-phenyl)-ethyl)-(4S*,7R*)-[4,7-ethenylene-spiro[2.4]heptane]-5,6-dicarboxamide]	23	2270
CC(C)CNC(=O)[C@H]1[C@H](C(=O)NCc2ccc(Br)cc2)[C@@H]2C=C[C@H]1C21CC1 (racemic) [Example 246, (5R*)—N^5-(4-Bromo-phenyl-methyl)-(6R*)—N^6-(isobutyl)-(4S*,7R*)-[4,7-ethenylene-spiro[2.4]heptane]-5,6-dicarboxamide]	191	5330
CC(C)CCN1CCC(NC(=O)[C@H]2[C@H](C(=O)Nc3ccc(Br)cc3)[C@@H]3C=C[C@H]2C32CC2)CC1 (racemic) [Example 69, (5R*)—N^5-(4-Bromophenyl)-(6R*)—N^6—(N-(3-methyl-butyl)-piperidin-4-yl)-(4S*,7R*)-[4,7-ethenylene-spiro[2.4]heptane]-5,6-dicarboxamide]	58	708
O=C(NCCN1CCNC1=O)[C@H]1[C@H](C(=O)Nc2ncc(Br)s2)[C@@H]2C=C[C@H]1C21CC1 (racemic) [Example 260, (5R*)—N^5-(5-Bromo-thiazol-2-yl)-(6R*)—N^6-((2-imidazolidin-2-on)-1-yl-ethyl)-(4S*,7R*)-[4,7-ethenylene-spiro[2.4]heptane]-5,6-dicarboxamide]	9.1	8730
CC(=O)c1csc(CNC(=O)[C@H]2[C@H](C(=O)NCC(C)C)[C@H]3C=C[C@@H]2C32CC2)n1 (racemic) [Example 244, (5R*)—N^5-(4-Acetyl-thiazol-2-yl-methyl)-(6R*)—N^6-(isobutyl)-(4S*,7R*)-[4,7-ethenylene-spiro[2.4]heptane]-5,6-dicarboxamide]	369	> 25000
CC(NC(=O)C1C(C(=O)Nc2ccc(Br)cc2)C2C=CC1C21CC1)C(N)=O (mixture of isomers) [Example 65, (5R*)—N^5-(4-Bromophenyl)-(6R*)—N^6-[(1S)-1-carbamoyl-ethyl]-(4S*,7R*)-[4,7-ethenylene-spiro[2.4]heptane]-5,6-dicarboxamide]	26	> 25000
COCCC(=O)NC[C@H]1[C@H](C(=O)Nc2ccc(Br)cc2)[C@@H]2C=C[C@H]1C21CC1 (racemic) [Example 163, (5R*)—N^5-(4-Bromo-phenyl)-(6R*)-6-[(3-methoxy-propionylamino)-methyl]-(4S*,7R*)-[4,7-ethenylene-spiro[2.4]heptane]-5-carboxamide]	72	5680
NC(=O)CCNC(=O)[C@H]1[C@H](C(=O)NCc2ccc(Br)cc2F)[C@@H]2CC[C@H]1C21CC1 [Example 292, (5R)—N^5-(4-Bromo-2-fluorophenyl-methyl)-(6R)—N^6-(3-amino-3-oxopropyl)-(4S,7R)-[4,7-ethylene-spiro[2.4]heptane]-5,6-dicarboxamide]	71	661
O=C(NCc1ccoc1)[C@H]1[C@H](C(=O)Nc2ccc(Br)cc2)[C@@H]2C=C[C@H]1C21CC1 (racemic) [Example 50, (5R*)—N^5-(4-Bromophenyl)-(6R*)—N^6-(furan-3-yl-methyl)-(4S*,7R*)-[4,7-ethenylene-spiro[2.4]heptane]-5,6-dicarboxamide]	13	1080
O=C(Nc1ncc(Br)s1)C1C(C(=O)NC2CCC(CO)CC2)C2CCC1C21CC1 (single isomer, unassigned) [Example 410]	855	18200
CC(=O)CCCCNC(=O)[C@H]1[C@H](C(=O)NCCCCN2CCCC2)[C@H]2C=C[C@@H]1C21CC1 (racemic) [Example 127, (5R*)—N^5-(5-oxo-hexyl)-(6R*)—N^6-(4-pyrrolidin-1-yl-butyl)-(4S*,7R*)-[4,7-ethenylene-spiro[2.4]heptane]-5,6-dicarboxamide]	95	2740
NCc1cccc(CNC(=O)[C@H]2[C@H](C(=O)Nc3ccc(Br)cc3)[C@@H]3C=C[C@H]2C32CC2)c1 (racemic) [Example 7, (5R*)—N^5-(4-Bromophenyl)-(6R*)—N^6-((3-aminomethyl-phenyl)-methyl)-(4S*,7R*)-[4,7-ethenylene-spiro[2.4]heptane]-5,6-dicarboxamide]	0.55	413
CC(C)(C)OC(=O)N1CCCC(CCNC(=O)C2C(C(=O)Nc3ccc(Br)cc3)C3C=CC2C32CC2)C1 (mixture of isomers) [Example 99, (5R*)—N^5-(4-Bromophenyl)-(6R*)—N^6-(2-(N-tert-butoxycarbonyl-piperidin-3-yl)-ethyl)-(4S*,7R*)-[4,7-ethenylene-spiro[2.4]heptane]-5,6-dicarboxamide]	552	5490

Continued, values first:

EC50 [1] [nM]	EC50 [2] [nM]	SMILES
32	32	O=C(NCCCCN1CCCC1)[C@H]1[C@H](C(=O)NCc2ccc(Br)cc2)[C@@H]2C=C[C@H]1C21CC1 [Example 286, (5R)—N^5-(4-Bromophenyl-methyl)-(6R)—N^6-(4-pyrrolidino-butyl)-(4S,7R)-[4,7-ethenylene-spiro[2.4]heptane]-5,6-dicarboxamide]
367	28	O=C(NCCCCN1CCCC1)[C@H]1[C@H](C(=O)Nc2ccc(Br)c(Cl)c2)[C@@H]2C=C[C@H]1C21CC1 [Example 297, (5R)—N^5-(4-Bromo-3-chlorophenyl)-(6R)—N^6-(4-pyrrolidino-butyl)-(4S,7R)-[4,7-ethenylene-spiro[2.4]heptane]-5,6-dicarboxamide]
10300	72	COc1ccc(CCNC(=O)[C@H]2[C@H](C(=O)NCCCCN3CCCC3)[C@H]3C=C[C@@H]2C32CC2)cc1Br (racemic) [Example 384, (5R*)—N^5-(2-(3-Bromo-4-methoxyphenyl)ethyl)-(6R*)—N^6-(4-pyrrolidino-butyl)-(4S*,7R*)-[4,7-ethenylene-spiro[2.4]heptane]-5,6-dicarboxamide]
9740	570	CC(=O)c1ccc(CNC(=O)[C@H]2[C@H](C(=O)NCCCCN3CCCC3)[C@H]3C=C[C@@H]2C32CC2)cc1 (racemic) [Example 363, (5R*)—N^5-(4-Acetylphenyl-methyl)-(6R*)—N^6-(4-pyrrolidino-butyl)-(4S*,7R*)-[4,7-ethenylene-spiro[2.4]heptane]-5,6-dicarboxamide]
> 25000	91	Cc1cc2ccccc2n1CCCNC(=O)[C@H]1[C@H](C(=O)NCCCCN2CCCC2)[C@H]2C=C[C@@H]1C21CC1 (racemic) [Example 155, (5R*)—N^5-(3-(2-Methyl-1H-indol-1-yl)-propyl)-(6R*)—N^6-(4-pyrrolidin-1-yl-butyl)-(4S*,7R*)-[4,7-ethenylene-spiro[2.4]heptane]-5,6-dicarboxamide]
7.9	558	O=C(NCCCCN1CCCC1)[C@H]1[C@H](C(=O)Nc2cnc(Br)cn2)[C@@H]2C=C[C@H]1C21CC1 (racemic) [Example 251, (5R*)—N^5-(2-Bromo-pyrazin-5-yl)-(6R*)—N^6-(4-pyrrolidin-1-yl-butyl)-(4S*,7R*)-[4,7-ethenylene-spiro[2.4]heptane]-5,6-dicarboxamide]
514	159	O=C(NCCCCN1CCCC1)[C@H]1[C@H](C(=O)NCc2ccc(F)cc2)[C@@H]2C=C[C@H]1C21CC1 (racemic) [Example 231, (5R*)—N^5-(4-Fluoro-phenyl-methyl)-(6R*)—N^6-(4-pyrrolidin-1-yl-butyl)-(4S*,7R*)-[4,7-ethenylene-spiro[2.4]heptane]-5,6-dicarboxamide]
